Experimental data published in ChEMBL document CHEMBL4406824, “Phenolic N-monosubstituted carbamates: Antitubercular and toxicity evaluation of multi-targeting compounds” (Eur J Med Chem, 2019).
pIC50: −log10 of the molar value. In brackets after ≈: the same amount, converted by molar mass.

What was measured:
[1] = system: Mycolicibacterium smegmatis; assay: Antimycobacterial activity against Mycobacterium smegmatis DSM 43465 after 120 hr by resazurin dye based microdilution method; type: functional; conditions: DSM 43465, 120 h
[2] = system: Mycolicibacterium aurum; assay: Antimycobacterial activity against Mycobacterium aurum DSM 43999 after 72 hr by resazurin dye based microdilution method; type: functional; conditions: DSM 43999, 72 h
[3] = system: HepG2; assay: Cytotoxicity against human HepG2 cells assessed as reduction in cell viability after overnight incubation by MTT assay; type: cell-based
[4] = system: Mycobacterium kansasii; assay: Antimycobacterial activity against Mycobacterium kansasii 235/80 after 21 days; type: functional; conditions: 235/80, 504 h
[5] = system: Mycobacterium kansasii; assay: Antimycobacterial activity against Mycobacterium kansasii 6509/96 after 14 days; type: functional; conditions: 6509/96, 336 h
[6] = system: Mycobacterium avium; assay: Antimycobacterial activity against Mycobacterium avium 330/88 after 14 days; type: functional; conditions: 330/88, 336 h
[7] = system: Mycobacterium tuberculosis; type: functional, H37Rv 331/88; design: reference not given here
[8] = system: Mycobacterium kansasii; assay: Potency index, ratio of p-aminosalicylic acid MIC to compound MIC for antimycobacterial activity against Mycobacterium kansasii 235/80; type: functional
[9] = system: Mycobacterium kansasii; assay: Antimycobacterial activity against Mycobacterium kansasii 235/80 after 14 days; type: functional; conditions: 235/80, 336 h
[10] = system: Mycobacterium kansasii; assay: Antimycobacterial activity against Mycobacterium kansasii 6509/96 after 21 days; type: functional; conditions: 6509/96, 504 h
[11] = system: Mycobacterium tuberculosis; type: functional; conditions: H37Rv 331/88, 336 h
[12] = system: Mycobacterium tuberculosis; type: functional; conditions: H37Rv 331/88, 504 h
[13] = system: Mycobacterium avium; assay: Antimycobacterial activity against Mycobacterium avium 330/88 after 21 days; type: functional; conditions: 330/88, 504 h
[14] = system: Mycobacterium tuberculosis H37Rv; assay: Inhibition of recombinant Mycobacterium tuberculosis H37Rv ICL1 expressed in Escherichia coli BL21 (DE3) cells at 10 uM using (+)-potassium Ds-threo-isocitrate as substrate by glyoxylate phenyl hydrazone formation assay relative to control
[15] = system: Mycobacterium tuberculosis; assay: Antimycobacterial activity against Mycobacterium tuberculosis H37Ra ITM-M006710 after 48 hr by resazurin dye based microdilution method; type: functional; conditions: H37Ra ITM-M006710, 48 h
[16] = system: Mycobacterium kansasii; assay: Antimycobacterial activity against Mycobacterium kansasii 235/80 after 7 days; type: functional; conditions: 235/80, 168 h
[17] = in vitro; conditions: human, HepG2 cells
Description: Selectivity index, ratio of IC50 for human HepG2 cells to MIC for antimycobacterial activity against Mycobacterium tuberculosis H37Rv

[18] = system: Mycobacterium kansasii; assay: Potency index, ratio of p-aminosalicylic acid MIC to compound MIC for antimycobacterial activity against Mycobacterium kansasii 6509/96; type: functional
[19] = system: HepG2; assay: Cytostatic activity against human HepG2 cells preincubated for overnight in serum free medium followed by compound wash out and further incubated for 72 hrs in presence of serum by MTT assay; type: ADME, cell-based
[20] = system: Mycobacterium kansasii; assay: Antimycobacterial activity against Mycobacterium kansasii 6509/96 after 7 days; type: functional; conditions: 6509/96, 168 h

SMILES | MIC [1] [mg/L] | MIC [2] [mg/L] | pIC50 [3] | MIC [4] [µM] | MIC [5] [µM] | MIC [6] [µM] | Ratio [7] | Ratio [8] | MIC [9] [µM] | MIC [10] [µM] | MIC [11] [µM] | MIC [12] [µM] | MIC [13] [µM] | inhibition [14] [%] | MIC [15] [mg/L] | MIC [16] [µM] | selectivity ratio [17] | Ratio [18] | pIC50 [19] | MIC [20] [µM]
O=C(NCCc1ccccc1)Oc1ccc(Cl)cc1C(=O)Nc1ccc(Cl)cc1 | 1.56 (≈ 3.63 µM) | 1.56 (≈ 3.63 µM) | 4.82 | 16 (≈ 6.87 µg/mL) | 8 (≈ 3.43 µg/mL) | 8 (≈ 3.43 µg/mL) | >125 | >250 | 8 (≈ 3.43 µg/mL) | 8 (≈ 3.43 µg/mL) | 8 (≈ 3.43 µg/mL) | 16 (≈ 6.87 µg/mL) | 8 (≈ 3.43 µg/mL) | 10 | 1.56 (≈ 3.63 µM) | 8 (≈ 3.43 µg/mL) | 1.9 | >250 | 5.29 | 4 (≈ 1.72 µg/mL)
O=C(NCc1ccccc1)Oc1ccc(Cl)cc1C(=O)Nc1ccc(F)cc1 | 3.12 (≈ 7.84 µM) | 3.12 (≈ 7.84 µM) | < 3.90 | 32 (≈ 12.8 µg/mL) | 32 (≈ 12.8 µg/mL) | 62.5 (≈ 24.9 µg/mL) | >125 | >250 | 32 (≈ 12.8 µg/mL) | 32 (≈ 12.8 µg/mL) | 8 (≈ 3.19 µg/mL) | 16 (≈ 6.38 µg/mL) | 62.5 (≈ 24.9 µg/mL) | 15 | 3.12 (≈ 7.84 µM) | 16 (≈ 6.38 µg/mL) | > 7.8 | >250 | 4.47 | 16 (≈ 6.38 µg/mL)
O=C(Nc1ccccc1)Oc1ccc(Cl)cc1C(=O)Nc1ccc(Br)cc1 | 1.56 (≈ 3.5 µM) | 1.56 (≈ 3.5 µM) | < 4.30 | 8 (≈ 3.57 µg/mL) | 8 (≈ 3.57 µg/mL) | 8 (≈ 3.57 µg/mL) | >125 | >250 | 8 (≈ 3.57 µg/mL) | 8 (≈ 3.57 µg/mL) | 8 (≈ 3.57 µg/mL) | 16 (≈ 7.13 µg/mL) | 16 (≈ 7.13 µg/mL) | 17 | 1.56 (≈ 3.5 µM) | 4 (≈ 1.78 µg/mL) | > 6.3 | >250 | 5.26 | 4 (≈ 1.78 µg/mL)
